Assay results reported in the supplement of paper PMC10307832.

What was measured:
Assay in all cases: relative viability (nuclei count vs DMSO), 5 days (fraction); higher = more cells survive
IDH-C35 + OSI-027 = compound: Cc1ccccc1C(C(=O)NC1CCCCC1)N(C(=O)Cn1ccnc1C)c1cccc(F)c1 [IDH-C35] + COc1cccc2cc(-c3nc([C@H]4CC[C@H](C(=O)O)CC4)n4ncnc(N)c34)[nH]c12 [OSI-027] (partner 0.5 µM)
Method in brief: (§1)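 A single step with final 0.05% Triton X-100, 1% formaldehyde and 1 ug/ml Hoechst fixed the cells and stained nuclei 5 days after treatment. Lung cancer cell lines in 1536-well plates had been treated by pin tool the day after seeding with one drug alone or a fixed anchor-drug dose plus five library-drug doses (not always all listed) in √10 steps, and nuclei were counted on 4× images. Relative viability is the ratio of nuclei in treated wells to nuclei in vehicle wells, taken as the median of duplicate plates.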

IDH-C35 + Linsitinib = compound: Cc1ccccc1C(C(=O)NC1CCCCC1)N(C(=O)Cn1ccnc1C)c1cccc(F)c1 [IDH-C35] + C[C@]1(O)C[C@@H](c2nc(-c3ccc4ccc(-c5ccccc5)nc4c3)c3c(N)nccn32)C1 [Linsitinib] (partner 1 µM)
Method in brief: as §1

IDH-C35 + Alpelisib = compound: Cc1ccccc1C(C(=O)NC1CCCCC1)N(C(=O)Cn1ccnc1C)c1cccc(F)c1 [IDH-C35] + Cc1nc(NC(=O)N2CCC[C@H]2C(N)=O)sc1-c1ccnc(C(C)(C)C(F)(F)F)c1 [Alpelisib] (partner 2 µM)
Method in brief: as §1

IDH-C35 + Vorinostat = compound: Cc1ccccc1C(C(=O)NC1CCCCC1)N(C(=O)Cn1ccnc1C)c1cccc(F)c1 [IDH-C35] + O=C(CCCCCCC(=O)Nc1ccccc1)NO [Vorinostat] (partner 1 µM)
Method in brief: as §1

Row | Cell Line | relative viability (IDH-C35 + OSI-027; first compound 0.08 µM) | relative viability (IDH-C35 + OSI-027; first compound 0.253 µM) | relative viability (IDH-C35 + OSI-027; first compound 0.8 µM) | relative viability (IDH-C35 + OSI-027; first compound 8 µM) | relative viability (IDH-C35 + Linsitinib; first compound 0.08 µM) | relative viability (IDH-C35 + Linsitinib; first compound 0.253 µM) | relative viability (IDH-C35 + Linsitinib; first compound 0.8 µM) | relative viability (IDH-C35 + Linsitinib; first compound 2.53 µM) | relative viability (IDH-C35 + Linsitinib; first compound 8 µM) | relative viability (IDH-C35 + Alpelisib; first compound 0.08 µM) | relative viability (IDH-C35 + Alpelisib; first compound 0.253 µM) | relative viability (IDH-C35 + Alpelisib; first compound 0.8 µM) | relative viability (IDH-C35 + Alpelisib; first compound 2.53 µM) | relative viability (IDH-C35 + Alpelisib; first compound 8 µM) | relative viability (IDH-C35 + Vorinostat; first compound 0.08 µM) | relative viability (IDH-C35 + Vorinostat; first compound 0.253 µM) | relative viability (IDH-C35 + Vorinostat; first compound 0.8 µM) | relative viability (IDH-C35 + Vorinostat; first compound 2.53 µM) | relative viability (IDH-C35 + Vorinostat; first compound 8 µM) | relative viability (IDH-C35 + OSI-027; first compound 2.53 µM)
1 | NCI-H2087 | 0.59 | 0.518 | 0.537 | 0.532 | 1.03 | 0.826 | 0.744 | 0.87 | 0.881 | 1.11 | 1.13 | 1.05 | 1.09 | 0.874 | 0.821 | 0.715 | 0.74 | 0.624 | 0.633 | 
2 | NCI-H1437 | 0.876 | 0.907 | 0.842 | 0.756 | 0.998 | 1.14 | 0.989 | 1.14 | 1.03 | 0.961 | 0.992 | 0.896 | 0.933 | 0.966 | 0.931 | 0.851 | 0.869 | 0.843 | 0.858 | 0.828
3 | NCI-H650 | 0.558 | 0.571 | 0.466 | 0.509 | 1.09 | 1.05 | 0.799 |  | 0.771 | 1.07 | 1.13 | 1.17 |  | 1.03 | 0.413 | 0.434 | 0.515 |  | 0.505 | 
4 | COR-L23 | 0.843 | 0.696 | 0.861 | 0.731 | 0.828 | 0.896 | 0.913 | 0.889 | 0.886 | 0.759 | 0.765 | 0.782 | 0.769 | 0.746 | 0.503 | 0.421 | 0.404 | 0.408 | 0.409 | 0.829
5 | COR-L 105 | 0.588 | 0.771 | 0.735 | 0.628 | 1.01 | 1.24 | 0.854 | 1.01 | 0.836 | 1.04 | 1.08 | 1.13 | 0.882 | 0.99 | 0.932 | 0.959 | 0.722 | 0.803 | 0.688 | 0.727
6 | LK-2 | 0.213 | 0.226 | 0.188 | 0.236 | 0.679 | 0.465 | 0.43 | 0.746 | 0.619 | 1.11 | 1.05 | 0.991 | 1.1 | 1.04 | 0.352 | 0.273 | 0.216 | 0.34 | 0.165 | 0.24
7 | 201T | 0.845 | 0.75 | 0.681 | 0.777 | 1.03 | 1.06 | 1.01 | 0.992 | 0.955 | 0.989 | 0.998 | 0.95 | 0.968 | 1.02 | 1 | 0.942 | 0.946 | 0.641 | 0.951 | 0.802
8 | HCC-44 | 0.538 | 0.641 | 0.595 | 0.625 | 0.656 | 0.628 | 0.647 | 0.876 | 0.69 | 0.821 | 0.764 | 0.737 | 0.827 | 0.763 | 1.11 | 1.09 | 1.12 | 1.13 | 1.11 | 0.61
9 | NCI-H596 | 0.787 | 0.806 | 0.709 | 0.629 | 1.14 | 1.14 | 0.986 | 1.14 | 1.13 | 0.552 | 0.48 | 0.555 | 0.471 | 0.446 | 0.733 | 0.584 | 0.721 | 0.725 | 0.604 | 
10 | H3255 | 0.554 | 0.534 | 0.581 | 0.647 | 0.981 | 0.915 | 1.01 | 0.877 | 0.881 | 0.681 | 0.822 | 0.633 | 0.774 | 0.637 | 0.8 | 0.925 | 0.875 | 0.73 | 0.868 | 0.661
11 | NCI-H647 | 0.683 | 0.676 | 0.573 | 0.665 | 1.03 | 1.29 | 1.18 | 1.1 | 1.1 | 1.14 | 1.23 | 1.14 | 1.12 | 0.917 | 0.541 | 0.565 | 0.577 | 0.769 | 0.528 | 0.569
12 | NCI-H2023 | 0.418 | 0.417 | 0.426 | 0.307 | 0.719 | 0.612 | 0.712 | 0.646 | 0.557 | 0.598 | 0.581 | 0.579 | 0.492 | 0.611 | 0.667 | 0.799 | 0.68 | 0.634 | 0.636 | 0.411
13 | NCI-H23 | 0.582 | 0.635 | 0.558 | 0.453 | 0.514 | 0.541 | 0.541 | 0.523 | 0.505 | 0.622 | 0.591 | 0.648 | 0.73 | 0.834 | 0.609 | 0.582 | 0.578 | 0.641 | 0.636 | 0.392
14 | NCI-H1944 | 0.418 | 0.415 | 0.413 | 0.392 | 1.07 | 1.29 | 1.27 | 1.09 | 1.1 | 0.848 | 0.911 | 0.826 | 0.75 | 0.81 | 0.496 | 0.613 | 0.474 | 0.538 | 0.566 | 0.442
15 | NCI-H1793 | 0.225 | 0.256 | 0.279 | 0.262 | 0.908 | 0.808 | 0.859 | 0.85 | 0.773 | 0.764 | 0.689 | 0.76 | 0.74 | 0.677 | 0.784 | 0.82 | 0.773 | 0.913 | 0.881 | 
16 | NCI-H520 | 0.257 | 0.243 | 0.268 | 0.265 | 0.915 | 0.969 | 1 | 0.888 | 0.907 | 0.71 | 0.808 | 0.891 | 0.845 | 0.954 | 0.68 | 0.728 | 0.899 | 0.669 | 0.699 | 0.276
17 | NCI-H460 | 0.659 | 0.757 | 0.681 | 0.602 | 0.909 | 0.872 | 0.843 | 0.749 | 0.663 | 0.472 | 0.504 | 0.545 | 0.549 | 0.439 | 0.723 | 0.693 | 0.676 | 0.725 | 0.649 | 0.644
18 | EKVX | 0.752 | 0.641 | 0.646 | 0.68 | 1.05 | 1.09 | 0.957 | 0.988 | 1.01 | 0.868 | 0.858 | 0.852 | 0.819 | 0.831 | 0.876 | 0.678 | 0.769 | 0.738 | 0.698 | 0.657
19 | NCI-H358 | 0.776 | 0.757 | 0.698 | 0.756 | 0.746 | 0.719 | 0.786 | 0.713 | 0.649 | 0.916 | 0.871 | 0.746 | 0.857 | 0.915 | 0.709 | 0.659 | 0.686 | 0.614 | 0.611 | 0.775
20 | EPLC-272H | 0.26 | 0.282 | 0.268 | 0.257 | 1.12 | 1.31 | 1.08 |  | 1.25 | 1.04 | 0.942 | 0.895 |  | 0.897 | 0.314 | 0.406 | 0.515 | 0.494 | 0.403 | 0.273
21 | NCI-H1395 | 0.66 | 0.701 | 0.709 | 0.579 | 1.2 | 1.04 | 1.1 | 1.09 | 0.956 | 1.12 | 0.889 | 1.09 | 1.04 | 1.05 | 0.773 | 0.694 | 0.707 | 0.927 | 0.766 | 0.618
22 | NCI-H2126 | 0.767 | 0.731 | 0.68 | 0.677 | 0.765 | 0.667 | 0.712 | 0.726 | 0.703 | 0.766 | 0.758 | 0.745 | 0.737 | 0.752 | 0.683 | 0.806 | 0.698 | 0.5 | 0.61 | 0.651
23 | LXF-289 | 0.79 | 0.761 | 0.757 | 0.709 | 0.94 | 0.971 | 0.936 | 0.949 | 0.956 | 1.04 | 1.03 | 1.01 | 0.994 | 1.03 | 0.768 | 0.787 | 0.86 | 0.62 | 0.799 | 0.783
24 | NCI-H2009 | 0.654 | 0.643 | 0.685 | 0.569 | 1.18 | 1.24 | 1.16 | 1.23 | 1.14 | 1.24 | 1.12 | 1.1 | 1.15 | 1.1 | 0.762 | 0.688 | 0.758 | 0.69 | 0.681 | 0.668
25 | NCI-H2405 | 0.651 | 0.651 | 0.622 | 0.621 | 0.974 | 0.957 | 0.928 |  | 0.907 | 0.927 | 0.815 | 0.777 |  | 0.736 | 1.08 | 0.956 | 0.968 | 1.24 | 1.02 | 0.567
26 | NCI-H1755 | 0.754 | 0.64 | 0.707 | 0.706 | 0.952 | 0.946 | 0.984 | 1.02 | 0.962 | 0.976 | 0.875 | 0.955 | 0.927 | 0.877 | 0.738 | 0.8 | 0.82 | 0.809 | 0.725 | 0.68
27 | HCC-78 | 0.349 | 0.362 | 0.633 | 0.332 | 0.54 | 0.495 | 0.497 | 0.382 | 0.453 | 0.361 | 0.323 | 0.322 | 0.397 | 0.331 | 0.447 | 0.484 | 0.457 | 0.381 | 0.531 | 0.388
